Data taken from patent US12522597B2, “Methods and compositions for modulating splicing” (Skyhawk Therapeutics, Inc., priority 2019, dated 2026).
pEC50: −log10 of the molar value. Where two headings read alike, the source gives them in different places.

Columns and labels:
MDR1 = experiment: MDCK-MDR1 permeability assay (BBB penetration potential); type: in vitro ADME; settings: dog; for efflux ratio at 120 min, 5 μM: MDCK-MDR1, pH 7.4, MDCK-MDR1: Efflux; for Papp A→B at 120 min, 5 μM: MDCK-MDR1, pH 7.4, MDCK-MDR1: Papp A-B; for Papp B→A at 120 min, 5 μM: MDCK-MDR1, pH 7.4, MDCK-MDR1: Papp B-A
Procedure: (§1) Each determination is performed in duplicate. […] Analytical conditions are outlined below.

[1] = test system: MDR1-MDCK cell monolayers; experiment: as above; type: in vitro ADME; settings: dog, MDCK-MDR1, 120 min, 5 μM, pH 7.4
Procedure: as §1

mHTT protein = mHTT protein assay (2B7-MW1, Mesoscale Discovery); type: cell-based, human; settings: GM04724 (CAG 70/20) Huntington's disease patient lymphoblast cells, 48 hours, 2B7-MW1 MSD; read-out: HTT Potency - Protein EC50 mHTT (average)
In short: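 mHTT levels were read with the 2B7-MW1 antibody pair (N17 and polyQ epitopes) on MSD after 48 h dosing, 10 μM–0.6 nM. Cells were GM04724 HD lymphoblasts (CAG 70/20). A replica plate was read by CTG for cell viability.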

[2] = test system: Huntingtin (HTT) transcripts; experiment: Quantitative splicing assay (HTT), qPCR; type: cell-based; settings: Homo sapiens, GM04724 (CAG 70/20) Huntington's disease patient lymphoblasts, 24 h
Procedure: GM04724 (CAG 70/20) Huntington's disease patient lymphoblasts (Coriell) are plated in 96-wel v-bottom plates at 50,000 cells/well. Immediately after plating, cells are dosed with compound for 24 h at concentrations ranging from 2.5 uM to 0.15 nM (0.1% DMSO). Treated cells are lysed and cDNA synthesized using the Fast Advanced Cells-to-Ct kit (Thermofisher A35378) according to the manufacturer's instructions. 2 uL of each cDNA are used in qPCR reactions to confirm the compound-induced inclusion of a cryptic exon within intron 49 of the Huntingtin (HTT) transcripts. The qPCR reactions are prepared in 384-well plates in 10 uL volume, using TaqMan™ Fast Advanced Master Mix [ThermoFisher; 4444965] with primers and probes shown in the table below. Reactions are run in a Quant Studio 6 qPCR instrument with default settings.

[3] = qPCR HTTex49_50, read-out: HTT Potency - Splicing: E49-50 EC50 (average)
[4] = qPCR cryptic exon 49b inclusion, read-out: HTT Potency - Splicing: E49b EC50 (average)

SMILES	efflux ratio at 120 min, 5 μM (MDR1)	Papp A→B at 120 min, 5 μM (MDR1) [×10⁻⁶ cm/s]	Papp B→A at 120 min, 5 μM (MDR1) [×10⁻⁶ cm/s]	MDCK-MDR1: % Recov A-B [1] [%]	MDCK-MDR1: % Recov B-A [1] [%]	pEC50 (mHTT protein)	pEC50 [2, 3]	pEC50 [2, 4]
Cn1ccc(-c2cc(O)c(-c3ccc(O[C@H]4C[C@@H]5CCC[C@@H](N5)[C@H]4F)nn3)cc2F)cc1=O (single isomer, unassigned) [58-ENT2]	47	1.17	55.1	83	90	7.82 to 11.00	7.30 to 7.80	7.30 to 7.80
Cn1cc(-c2cc(O)c(-c3ccc(O[C@H]4C[C@@H]5CCC[C@@H](N5)[C@H]4F)nn3)cc2Cl)cn1 (single isomer, unassigned) [120-ENT2]	7	4.47	30.2	28	71	7.00 to 7.29	7.00 to 7.29	7.30 to 7.80
Cn1cc(-c2ccc(-c3ccc(O[C@H]4C[C@@H]5CCC[C@@H](N5)[C@H]4F)nn3)c(O)c2)cn1 (single isomer, unassigned) [1-ENT2]	6	6.05	33.7	76	83	7.82 to 11.00	7.30 to 7.80	7.30 to 7.80
Cn1c(=O)oc2cc(-c3ccc(O[C@H]4C[C@@H]5CCC[C@@H](N5)[C@H]4F)nn3)c(O)cc21 (single isomer, unassigned) [74-ENT2]	5	6.96	31.4	87	75	5.00 to 6.30	5.00 to 6.30	5.00 to 6.30
Cn1ccc2cc(-c3ccc(O[C@H]4CC5CCC[C@@H](N5)[C@H]4F)nn3)c(O)cc2c1=O (single isomer, unassigned) [125-ENT1]	23	3.35	76	101	91	7.00 to 7.29	6.30 to 7.00	7.00 to 7.29
COc1cc(-c2ccc(-c3ccc(O[C@@H]4C[C@H]5CCC[C@H](N5)[C@@H]4F)nn3)c(O)c2)cnn1 (single isomer, unassigned) [76-ENT1]	8	3.83	32.3	64	70	7.30 to 7.80	7.82 to 11.00	7.82 to 11.00
C[C@@]12CCC[C@@](C)(N1)[C@@H](F)[C@@H](Oc1ccc(-c3ccc(-c4cn[nH]c4)cc3O)nn1)C2 (single isomer, unassigned) [147-ENT1]	13	4.61	58.1	78	83	7.82 to 11.00	7.82 to 11.00	7.82 to 11.00
Cn1cc(-c2ccc(-c3ccc(O[C@@H]4C[C@H]5CCC[C@H](N5)[C@H]4F)nn3)c(O)c2)cn1 (single isomer, unassigned) [49-ENT1]	2	5.36	11.8	49	82	7.00 to 7.29	7.00 to 7.29	7.00 to 7.29
Cn1cc(-c2ccc(-c3ccc(O[C@H]4C[C@@H]5CCC[C@@H](N5)[C@@H]4F)nn3)c(O)c2)cn1 (single isomer, unassigned) [49-ENT2]	3	4.62	15.4	46	75	7.30 to 7.80	7.30 to 7.80	7.82 to 11.00
Cn1ccc2cc(-c3ccc(O[C@@H]4C[C@H]5CCC[C@H](N5)[C@@H]4F)nn3)c(O)cc2c1=O (single isomer, unassigned) [125-ENT2]	16	3.2	52	84	87	7.30 to 7.80	6.30 to 7.00	7.00 to 7.29
Cc1ccc(-c2ccc(-c3ccc(O[C@@H]4C[C@H]5CCC[C@H](N5)[C@@H]4F)nn3)c(O)c2)nn1 (single isomer, unassigned) [75-ENT1]	9	3.66	32.5	90	92	5.00 to 6.30	5.00 to 6.30	5.00 to 6.30
Cn1ccc2cc(-c3ccc(O[C@H]4C[C@]5(C)CCC[C@@](C)(N5)[C@H]4F)nn3)c(O)cc2c1=O (single isomer, unassigned) [156-ENT2]	9	4.9	46.3	80	99	7.82 to 11.00	7.30 to 7.80	7.30 to 7.80
Oc1cc(-c2cn[nH]c2)ccc1-c1ccc(O[C@H]2C[C@@H]3CCC[C@@H](N3)[C@H]2F)nn1 (single isomer, unassigned) [40-ENT1]	19	2.67	49.9	83	85	7.82 to 11.00	7.82 to 11.00	7.82 to 11.00
COc1cc(-c2ccc(-c3ccc(O[C@H]4C[C@@H]5CCC[C@@H](N5)[C@H]4F)nn3)c(O)c2)cnn1 (single isomer, unassigned) [76-ENT2]	10	4.19	39.9	82	85	7.82 to 11.00	7.82 to 11.00	7.82 to 11.00
Cn1ccc2cc(O)c(-c3ccc(O[C@H]4C[C@]5(C)CC[C@@](C)(N5)[C@H]4F)nn3)cc2c1=O (single isomer, unassigned) [130-ENT1]	6	7.86	43.7	78	80	7.82 to 11.00	7.00 to 7.29	7.30 to 7.80
Cc1ncc(-c2ccc(-c3ccc(O[C@@H]4C[C@H]5CCC[C@H](N5)[C@@H]4F)nn3)c(O)c2)o1 (single isomer, unassigned) [93-ENT1]	4	8.72	38.7	75	78	7.30 to 7.80	7.30 to 7.80	7.30 to 7.80
